Assays:
[1] = target: human LIF (Homo sapiens, UniProt P15018); assay: ELISA binding of biotinylated dioxin to LIF; conditions: species not given
Experimental: The applicants utilized the same biotinylated dioxin as Petrenko in an ELISA assay for binding to LIF, to several mutants of the LIF protein changed in the EPFP homology domain (residues 50-53), to anti-dioxin antibodies as a positive control, and to ciliary neurotrophic factor (CNTF) (structurally similar to LIF but lacking the SEQ. ID NO. 5 motif) as a negative control. […] to human and murine LIF with a KD of approximately 10-100 μM, indicating an affinity approximately 10,000 fold less than the anti-dioxin antibodies used as a positive control.

[2] = target: T1, Bcl-2/GST fusion protein (Homo sapiens, UniProt P10415); assay: ELISA binding of Bcl-2/GST fusion protein to immobilized biotinylated taxane; conditions: confirmation of binding of Bcl-2 to taxol
Source text: ELISA binding assays were used to determine if the Bcl-2/GST fusion protein binds directly to immobilized biotinylated taxol. Anti-Bcl-2 antibodies were used to detect Bcl-2 binding. […] The x-axis is the log nM concentration of protein in solution (Bcl-2 or Bcl-XL); the y-axis is the uncorrected optical density at 490 nm. The insert is the chemical structure of the biotinylated taxol used in the selection of peptides.

[3] = system: 697 human acute leukemia pre-B cells; conditions: 697 cells; cited from earlier work
[4] = target: GST (Schistosoma japonicum, UniProt P08515); assay: Circular dichroism control: purified GST with and without taxol; assay type: binding; conditions: GST alone
Experimental: In a control experiment, taxol was added to purified GST from S. japonicum. […] The differences are far smaller than the error bars, and there is no change in the 220/210 nm ratio, nor is a peak shift observed. This means that were there any net structural change within the GST molecule alone, it would involve less than 0.5% of its total secondary structure. […] Furthermore, this binding has significant structural consequences for the Bcl-2 protein, involving approximately 15% to 20% of the loop residues.

[5] = target: T1, Bcl-2/GST fusion protein; assay: Circular dichroism spectroscopy of Bcl-2/GST with and without taxol; assay type: binding
Source text: Each spectrum is the averaged result of five spectra and subtracted baselines with standard deviations as indicated. These differences are much larger than the error bars (standard deviations) in the measurements, and involve a change in both the shape of the curve (ratio of the 220/210 nm peaks) and the peak positions. The secondary structures calculated for the Bcl-2 fusion protein with and without taxol differ by approximately 4%, and appear to involve a change in a region of the molecule that is found in a beta-turn conformation. This corresponds to the type of secondary structure which is predicted for the HTPHP-containing portion of the Bcl-2 loop region (SEQ. ID No. 3). […] Homology between TAX2.29 and human Bcl-2 lies between positions 1 through 12 and residues 55 through 66 respectively, inferring a minimum drug/protein interaction of at least twelve amino acids.

T1 sequence (P10415 whole entry, the tested form may be a part): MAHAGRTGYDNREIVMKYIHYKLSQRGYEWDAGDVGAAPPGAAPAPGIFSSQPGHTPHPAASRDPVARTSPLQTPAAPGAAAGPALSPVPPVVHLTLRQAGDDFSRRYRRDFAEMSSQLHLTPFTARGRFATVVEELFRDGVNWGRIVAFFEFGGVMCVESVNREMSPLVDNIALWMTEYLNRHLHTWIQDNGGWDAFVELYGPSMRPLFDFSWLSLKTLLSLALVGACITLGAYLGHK
Sequence of GST (P08515 whole entry): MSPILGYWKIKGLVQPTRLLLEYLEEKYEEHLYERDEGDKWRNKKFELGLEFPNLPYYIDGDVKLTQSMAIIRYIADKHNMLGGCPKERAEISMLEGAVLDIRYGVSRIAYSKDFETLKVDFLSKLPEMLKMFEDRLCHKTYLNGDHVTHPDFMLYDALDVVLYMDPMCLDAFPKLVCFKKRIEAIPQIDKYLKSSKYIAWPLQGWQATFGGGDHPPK
Sequence of human LIF (P15018 23-202): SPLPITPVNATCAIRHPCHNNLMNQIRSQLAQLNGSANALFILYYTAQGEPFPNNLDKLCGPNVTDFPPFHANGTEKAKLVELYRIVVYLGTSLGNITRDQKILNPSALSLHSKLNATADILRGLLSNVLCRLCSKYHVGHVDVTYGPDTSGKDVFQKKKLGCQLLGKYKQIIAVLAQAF

binding affinity in words [1] | binding affinity in words [2] | CD spectra with and without taxol [4] | net structural change as share of total secondary structure [4] | difference in calculated secondary structure with and without taxol ([5]; CD, beta-turn region) | conformational change upon binding taxol (CD spectrum) ([5]; spectra with and without taxol) | SMILES | apoptosis [3] | phosphorylation of Bcl-2 [3]
at least micromolar affinity | – | – | – | – | – | C1=COC=CO1 [dioxin] | – | –
– | micromolar affinity | virtually identical | less than 0.5% | approximately 4% | substantial conformational change | CC(=O)O[C@H]1C(=O)[C@@]2(C)[C@H]([C@H](OC(=O)c3ccccc3)[C@]3(O)C[C@H](OC(=O)[C@H](O)[C@@H](NC(=O)c4ccccc4)c4ccccc4)C(C)=C1C3(C)C)[C@]1(OC(C)=O)CO[C@@H]1C[C@@H]2O [taxol] | induces | induces
– | – | – | – | – | – | CC(=O)O[C@@]12CO[C@@H]1C[C@H](O)[C@@]1(C)C(=O)[C@H](O)C3=C(C)[C@@H](OC(=O)[C@H](O)[C@@H](NC(=O)OC(C)(C)C)c4ccccc4)C[C@@](O)([C@@H](OC(=O)c4ccccc4)[C@H]21)C3(C)C [taxotere] | induces | induces
